From US8980926B2, “2-aminoindole compounds and methods for the treatment of malaria” (Genzyme Corporation, priority 2009, dated 2015)
Where two headings read alike, the source gives them in different places.

Tests used:
P. falciparum strain 3D7 = test: In vitro potency against P. falciparum strain 3D7 (SYBR green/DAPI); assay type: cell-based; details: Plasmodium falciparum
Erythrocyte lysis = assay type: cell-based; details: erythrocytes, read-out: Selectivity, Mammalian cytotoxicity (IC50; μM) Eryth. Lysis
P. berghei N-clone = test: In vivo efficacy against P. berghei in mice (4-day suppressive test, oral); parameters: species or system P. berghei in Swiss Albino mice; details: for No. Cured: animals cured/group; for % Suppression Day 5: vs untreated controls
Description: Because of ethical issues and costs, the acute P. berghei model in rodents is considered the “gold standard” for assessing anti-malarial efficacy in animal models. This model is adapted from Peters' “4-day suppressive test” (Peters, W. 1987. Chemotherapy and Drug Resistance in Malaria, p. 102-115, 2ed, vol. 1. Academic Press, Orlando, Fla.; Peters, W. 1975. The chemotherapy of rodent malaria, XXII. The value of drug-resistant strains of P. berghei in screening for blood schizontocidal activity. Ann Trop Med Parasitol 69:155-171). All studies were conducted in accordance with the Guide for the Care and Use of Laboratory Animals (National-Research-Council. 1996. Guide for the Care and Use of Laboratory Animals. National Academy Press, Washington, D.C.) and the PHS guidelines. Animals were maintained according to NIH guidelines and were allowed to acclimatize for 1 week prior to the commencement of studies. On Day 0, groups of 4-6-week old female Swiss Albino mice (n=5) were infected by tail vein injection with 0.2 ml heparinized blood diluted to contain 1×10^7 N-clone parasites. The aminoindole analogs were formulated in 1.6% lactic acid mixed sodium salt, 1% Tween 80, 9% ethanol and 20% Cerestar (hydroxypropyl β-cyclodextrin; Wacker Chimie) and were administered by oral gavage. […] Animals in the Control-group received vehicle alone. Dose concentration and frequency of dosing were based upon preliminary tolerability/exposure studies. On Day 4 post-infection (5th day of assay) blood was collected by tail-nick, and thin smear microscope slides were prepared and stained using Diff Quick®. Parasitized erythrocytes were counted and compared with the total number of erythrocytes per microscopic field to determine the percent parasitemia. A minimum of 350 erythrocytes were counted. Animals showing no detectable parasites on Day 4 were examined every 2-3 days to determine whether cure was sterile. Animals with no detectable parasites 28 days after cessation of dosing (Study Day 33) were considered cured.

[1] = test system: Plasmodium falciparum strain Dd2; test: In vitro potency against P. falciparum strain Dd2; assay type: cell-based; details: read-out: Potency (IC50; nM) Plasmodium spp. Pf Dd2
[2] = Mammalian cytotoxicity, dermal fibroblast; assay type: cell-based; details: human, normal human dermal fibroblasts (Clonetics #CC-2509); read-out: Selectivity, Mammalian cytotoxicity (IC50; μM) Dermal Fibroblast
[3] = Mammalian cytotoxicity, kidney epithelial; assay type: cell-based; details: normal human renal proximal tubule cells; read-out: Selectivity, Mammalian cytotoxicity (IC50; μM) Kidney epithelial
P. berghei ANKA strain = test: In vitro potency against P. berghei ANKA; assay type: cell-based; details: Plasmodium berghei, read-out: Potency (IC50; nM) Plasmodium spp. Pb ANKA
[4] = read-out: Potency (IC50; nM) Plasmodium spp. Pf 3D7
[5] = reductions in parasitemia, read-out: IC50 values

| Structure (SMILES) | IC50 (P. falciparum strain 3D7; [5]) [nM] | also measured |
| --- | --- | --- |
| CCOc1ccc(F)cc1[C@]1(O)C(N)=Nc2ccc(Cl)cc21 (stereo in doubt) [Compound 266] | 1 to 100 | IC50 (P. falciparum strain 3D7; [4]): 18 nM; IC50 (Erythrocyte lysis): > 125 µM; No. Cured (P. berghei N-clone; 100 mg/kg/day b.i.d. p.o.): 0/5; % Suppression Day 5 (P. berghei N-clone; 100 mg/kg/day b.i.d. p.o.): 81%; IC50 [1]: 58 nM; IC50 [2]: > 195 µM; IC50 [3]: > 195 µM; IC50 (P. berghei ANKA strain): 342 nM |
| COc1cc(C2(O)C(N)=Nc3ccc(Cl)cc32)c(OC)cn1 (stereo not shown) [Compound 202] | 1 to 100 | IC50 (P. falciparum strain 3D7; [4]): 21 nM; IC50 (Erythrocyte lysis): > 125 µM; No. Cured (P. berghei N-clone; 100 mg/kg/day b.i.d. p.o.): 0/5; % Suppression Day 5 (P. berghei N-clone; 100 mg/kg/day b.i.d. p.o.): 95%; Average Day of Recrudescence (P. berghei N-clone; 200 mg/kg/day b.i.d. p.o., Study Day): 17 days; No. Cured (P. berghei N-clone; 200 mg/kg/day b.i.d. p.o.): 0/5; Recrudescence (no. animals/total) (P. berghei N-clone; 200 mg/kg/day b.i.d. p.o., no parasites on Day 5 but later regressed): 2/5; % Suppression Day 5 (P. berghei N-clone; 200 mg/kg/day b.i.d. p.o.): 98%; IC50 [1]: 81 nM; IC50 [2]: > 195 µM; IC50 [3]: > 195 µM |
| COc1cc(F)c(C2(O)C(N)=Nc3ccc(Cl)cc32)cc1OC (stereo not shown) [Compound 217] | 1 to 100 |  |
| CCCOc1cnc(OC)c(C2(O)C(N)=Nc3ccc(Cl)cc32)c1 (stereo not shown) [Compound 218] | 1 to 100 |  |
| NC1=Nc2ccc(Cl)cc2C1(O)c1cc(Cl)ccc1OC1CC1 (stereo not shown) [Compound 219] | 1 to 100 |  |
| CCCOc1cnc(OC)cc1C1(O)C(N)=Nc2ccc(Cl)cc21 (stereo not shown) [Compound 220] | 1 to 100 |  |
| COc1cnc(Cl)cc1C1(O)C(N)=Nc2ccc(Cl)cc21 (stereo not shown) [Compound 221] | 100 to 500 |  |
| CCOc1cnc(Cl)cc1C1(O)C(N)=Nc2ccc(Cl)cc21 (stereo not shown) [Compound 224] | 1 to 100 |  |
| CC(C)C1(O)C(N)=Nc2cccc(Cl)c21 (stereo not shown) [Compound 227] | 100 to 500 |  |
| CCOc1cc(C2(O)C(N)=Nc3ccc(Cl)cc32)c(OC)cn1 (stereo not shown) [Compound 228] | 1 to 100 |  |
| NC1=Nc2ccccc2C1(O)CC12CC3CC(CC(C3)C1)C2 (stereo not shown) [Compound 229] | 100 to 500 |  |
| CC(C)C1(O)C(N)=Nc2cc(Cl)ccc21 (stereo not shown) [Compound 230] | 100 to 500 |  |
| Cc1ccc2c(c1)C(O)(C(C)C)C(N)=N2 (stereo not shown) [Compound 231] | 100 to 500 |  |
| NC1=Nc2ccc(Cl)cc2C1(O)c1cc(F)ccc1OC1CC1 (stereo not shown) [Compound 232] | 1 to 100 |  |
| COc1cc(C2(O)C(N)=Nc3ccc(Cl)cc32)c(F)cn1 (stereo not shown) [Compound 233] | 100 to 500 |  |
| COc1ncc(Cl)cc1C1(O)C(N)=Nc2ccc(Cl)cc21 (stereo not shown) [Compound 238] | 1 to 100 |  |
| CCOc1ncc(Cl)cc1C1(O)C(N)=Nc2ccc(Cl)cc21 (stereo not shown) [Compound 242] | 1 to 100 |  |

Second part, led by results:

| IC50 (P. falciparum strain 3D7; [5]) [nM] | Structure (SMILES) | also measured |
| --- | --- | --- |
| 1 to 100 | NC1=Nc2ccc(Cl)cc2C1(O)c1cccc2ccccc12 (stereo not shown) [Compound 11] | IC50 (P. falciparum strain 3D7; [4]): 30 nM; IC50 (Erythrocyte lysis): > 129 µM; IC50 [1]: 37 nM; IC50 [2]: 24 µM; IC50 [3]: 24 µM |
| 1 to 100 | NC1=Nc2ccc(Cl)cc2C1(O)Cc1ccccc1 (stereo not shown) [Compound 38] | IC50 (P. falciparum strain 3D7; [4]): 38 nM; IC50 (Erythrocyte lysis): > 147 µM; IC50 [1]: 110 nM; IC50 [2]: > 62.5 µM; IC50 [3]: > 62.5 µM |
| 1 to 100 | NC1=Nc2ccc(Cl)cc2C1(O)c1ccccc1OC1CC1 (stereo not shown) [Compound 216] |  |
| 1 to 100 | CC(C)Oc1ccccc1[C@]1(O)C(N)=Nc2ccc(Cl)cc21 [Compound 222] |  |
| 1 to 100 | CC(C)Oc1ccccc1[C@@]1(O)C(N)=Nc2ccc(Cl)cc21 [Compound 223] |  |
| 1 to 100 | CCOc1cc(F)ccc1C1(O)C(N)=Nc2ccc(Cl)cc21 (stereo not shown) [Compound 225] |  |
| 100 to 500 | Cn1cc(F)c2c(C3(O)C(N)=Nc4ccc(Cl)cc43)cccc21 (stereo not shown) [Compound 226] |  |
| 1 to 100 | CCN(CC)c1ccccc1C1(O)C(N)=Nc2ccc(Cl)cc21 (stereo not shown) [Compound 234] |  |
| 100 to 500 | CN(C)c1ncccc1C1(O)C(N)=Nc2ccc(Cl)cc21 (stereo not shown) [Compound 236] |  |
| 1000 to 5000 | NC1=Nc2ccc(Cl)cc2C1(O)C#Cc1ccccc1 (stereo not shown) [Compound 237] |  |
| 100 to 500 | COc1ncccc1C1(O)C(N)=Nc2ccc(Cl)cc21 (stereo not shown) [Compound 239] |  |
| 100 to 500 | Cn1c(C2(O)C(N)=Nc3ccc(Cl)cc32)nc2cc(Br)ccc21 (stereo not shown) [Compound 241] |  |
